Results from publication PMC2518627 (Analytical Biochemistry, 2007).

Columns and labels:
[1] = system: NAADP binding protein from sea urchin (L. pictus) egg homogenate; assay: NAADP radioreceptor binding assay (displacement of [32P]NAADP); parameters: species or system Lytechinus pictus; details: for IC50: read-out: IC50 (displacement of [32P]NAADP binding), 1% sea urchin egg homogenate, 25 °C
Method: First, 25 μl of test sample was added to each tube. Second, 125 μl of 1% (v/v) sea urchin egg homogenate in intracellular medium was added and allowed to incubate for 10 min at 25 °C. […] The tubes were then incubated at room temperature for a further 10 min at 25 °C. Note that the order of addition is important to maximize the sensitivity of the assay. […] Washing was carried out three times using 1 ml of a buffer containing 20 mM Hepes and 500 mM potassium acetate (pH 7.4).
Radioactivity was determined by placing the filter circles in a scintillation vial containing 10 ml H2O, followed by Cerenkov scintillation counting.
Filter papers were wrapped in cling film and then placed in a cassette to expose a storage phosphor screen (GE Healthcare) for 1 to 4 h. The screen was then scanned using a Typhoon 9400 scanner (GE Healthcare) at a resolution of 100 μm. The resulting image was then analyzed using ImageQuant (GE Healthcare).
Samples are then filtered using a cell harvester. […] Sample concentrations may then be determined from the standard curve.

pancreatic acinar cells = assay: NAADP levels in pancreatic acinar cells preincubated with BAPTA-AM; format: cell-based, CD1 mice
Method: Cells may be prepared in any suitable manner; gametes, isolated cells, chopped tissue, and cells in culture all have been used successfully. Cells were then exposed to agonist, and at the appropriate time points the reaction in cells was stopped by the addition of 0.75 M ice-cold HClO4 added as an equal volume of 1.5 M solution. Sonication (Jencons Vibracell at amplitude 60) was carried out to disrupt the cells, which were then placed on ice for 15 min. The denatured protein was pelleted by centrifugation at 9000g for 10 min and stored at –80 °C for later analysis. Supernatant was neutralized with 1 M KHCO3, added as an equal volume of 2 M solution, and vortexed. The resulting KClO4 precipitate was removed by centifugation at 9000g for 10 min. Samples were stored at –80 °C for later analysis.
Pancreatic acinar cells were prepared as described previously. Briefly, pancreata were excised from 8- to 10-week-old male CD1 mice and were finely chopped before incubation with 200 U/ml collagenase for 15 min at 37 °C. The digested tissue was then washed and resuspended to 10 ml with buffer of the following composition: 140 mM NaCl, 4.7 mM KCl, 1 mM MgCl2, 1 mM CaCl2, 10 mM Hepes, and 10 mM glucose (pH 7.4). Protease inhibitor cocktail tablets (EDTA free, Roche Diagnostics, UK), one tablet per 50 ml, were added to this solution before use. The suspension was triturated, and supernatant that contained dispersed cells was collected into a new tube. After centrifugation at 800g for 3 min at 4 °C, the supernatant was discarded and the cell pellet was resuspended for further trituration and centrifugation. The resulting supernatant was discarded, and the cells were kept in buffer supplemented with 1 mM CaCl2 at room temperature on a rocking board for 30 min before use. Prior to use, the cells were centrifuged at 800g for 1 min at 4 °C. The cells were suspended in the above buffer without the addition of protease inhibitors. Pancreatic acinar cells were aliquoted into tubes. […]

[2] = Stability of nucleotides under different pH conditions (HPLC); format: physicochemical; details: 1 mM, 6 h
Method: All high-performance liquid chromatography (HPLC) was carried out on an anion exchange resin (AGMP1, Bio-Rad, USA), packed in 150 × 2.5-mm Omnifit columns, using a concave upward gradient of trifluoroacetic acid (TFA), delivered by a Waters 600e pump, as described previously. Detection was performed by a UV detector (Waters 2487, UK) at 254 nm.
Samples were then neutralized with their base equivalence of either Tris base (for acidic solutions) or Hepes acid (for basic solutions) as applicable. Samples were analyzed by HPLC as described above, with elution times being determined from standard runs with known compounds.

human NAD kinase = system: human NAD kinase; parameters: method as in PMID 11594753; details: cited from earlier work
[3] = maximum concentration tested 100 μM
[4] = 100 pM CCK after preincubation with 20 μM BAPTA-AM
[5] = maximum concentration tested 2 mM

Displacement of NAADP at the maximum concentration tested [1, 3]	Molecule	IC50 [1] [µM]	other results
failed to displace	Nc1ncnc2c1ncn2[C@@H]1O[C@H](COP(=O)(O)OP(=O)(O)O)[C@@H](O)[C@H]1O [ADP]		
failed to displace	Nc1ncnc2c1ncn2[C@@H]1O[C@H](COP(=O)(O)O)[C@@H](O)[C@H]1O [AMP]		
failed to displace	Nc1ncnc2c1ncn2[C@@H]1O[C@H](COP(=O)(O)OP(=O)(O)OP(=O)(O)O)[C@@H](O)[C@H]1O [ATP]		
failed to displace	Nc1ncnc2c1ncn2[C@@H]1O[C@H](COP(=O)(O)OP(=O)(O)OC[C@H]2OC(O)[C@H](O)[C@@H]2O)[C@@H](O)[C@H]1O (stereo partly shown) [ADPR]		

More lines, now with the values behind:

Molecule	Displacement of NAADP at the maximum concentration tested [1, 3]	IC50 [1] [µM]	other results
O=C(O)c1cccnc1 [nicotinic acid]	failed to displace		
O=P(O)(O)O[C@@H]1[C@H](O)[C@H](O)[C@@H](OP(=O)(O)O)[C@H](OP(=O)(O)O)[C@H]1O [IP3, D-myo-inositol 1,4,5-trisphosphate]	failed to displace		
cholecystokinin [CCK]			Change in NAADP levels (pancreatic acinar cells; [4]): continuous increase; Duration of increase in NAADP levels (pancreatic acinar cells; [4]): at least 20 min
NC(=O)C1=CN([C@@H]2O[C@H](COP(=O)(O)OP(=O)(O)OC[C@H]3O[C@@H](n4cnc5c(N)ncnc54)[C@H](O)[C@@H]3O)[C@@H](O)[C@H]2O)C=CC1 [NADH]			Displacement of NAADP at the maximum concentration tested [1, 5]: failed to displace
NC(=O)C1=CN([C@@H]2O[C@H](COP(=O)(O)OP(=O)(O)OC[C@H]3O[C@@H](n4cnc5c(N)ncnc54)[C@H](OP(=O)(O)O)[C@@H]3O)[C@@H](O)[C@H]2O)C=CC1 [NADPH]		6.3	Stability at pH 7.2 ([2]; 50 mM Hepes (pH 7.2)): remained stable; Stability at pH 0.88 ([2]; 0.75 M HClO4 (pH 0.88)): became unstable; Stability at pH 8.6 ([2]; 0.75 M HClO4/1 M KHCO3 (pH 8.6)): became unstable; Stability at pH 11 ([2]; 1 M K2CO3 (pH 11)): similarly unstable; Stability at pH 9.1 ([2]; 1 M KHCO3 (pH 9.1)): became unstable
nicotinamide adenine dinucleotide phosphate [NADP]		21	
nicotinic acid adenine dinucleotide phosphate [NAADP]		0.00054	
NC(=O)c1ccc[n+]([C@@H]2O[C@H](COP(=O)([O-])OP(=O)(O)OC[C@H]3O[C@@H](n4cnc5c(N)ncnc54)[C@H](O)[C@@H]3O)[C@@H](O)[C@H]2O)c1 [NAD, nicotinamide adenine dinucleotide]			Km (human NAD kinase): 800 µM; Displacement of NAADP at the maximum concentration tested [1, 5]: failed to displace
Nc1ncnc2c1ncn2[C@@H]1O[C@H](COP(=O)(O)OP(=O)(O)OC[C@H]2O[C@@H]([n+]3cccc(C(=O)O)c3)[C@H](O)[C@@H]2O)[C@@H](O)[C@H]1O [NAAD, nicotinic acid adenine dinucleotide]		51	
CC(=O)OCOC(=O)CN(CC(=O)OCOC(C)=O)c1ccccc1OCCOc1ccccc1N(CC(=O)OCOC(C)=O)CC(=O)OCOC(C)=O [BAPTA-AM, 1,2-bis(2-aminophenoxy)ethane-N,N,N′,N′-tetraacetic acid tetrakis (acetoxymethyl) ester]			Change in NAADP levels (pancreatic acinar cells; 20 μM BAPTA-AM alone, followed by control buffer): no change
N=c1c2ncn3c2ncn1[C@@H]1O[C@H](COP(=O)(O)OP(=O)(O)OC[C@H]2O[C@@H]3[C@H](O)[C@@H]2O)[C@@H](O)[C@H]1O [cADPR, cyclic ADP ribose]		2.5	
